# Values of other authors in US6765009B2, “1,4-Disubstituted benzo-fused compounds” (Boehringer Ingelheim Pharmaceuticals, Inc., priority 2001, dated 2004).
# Experiments:
# [1] = tested on: closed brain injury; details: experimental model
# [2] = tested on: rheumatoid arthritis; details: Phase III clinical trial
# [3] = tested on: septic shock syndrome; details: phase III human clinical trial
molecule,measurement,setting,value
CCCCCCC(C)(C)c1cc(O)c2c(c1)OC(C)(C)[C@H]1CC=C(CO)C[C@H]21 [HU-211],outcome of closed brain injury,[1],improve the outcome
Enbrel,efficacy in treatment of rheumatoid arthritis,[2],demonstrated efficacy
"IL-1ra: ""IL-1 receptor antagonist (IL-1ra) had been examined in human clinical trials"" ... ""(Antril, Amgen)""",mortality rate in patients with septic shock syndrome,[3],reduced the mortality rate
